Assay results from PubChem BioAssay (NCI).
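Briefly, cells in 96-well plates were exposed to five compound concentrations for 48 h, and endpoints were estimated by linear interpolation. TGI: total growth inhibition.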

How the values were obtained:
Experiment in all cases: NCI anticancer screen, dose series, 48 h
[1] = test system: A498 renal
[2] = test system: OVCAR-3 ovarian
[3] = test system: OVCAR-4 ovarian
[4] = test system: MDA-MB-435
[5] = test system: MDA-N
[6] = test system: CAKI-1 renal
[7] = test system: SW-620 colon
[8] = test system: UO-31 renal
[9] = test system: MOLT-4 leukemia
[10] = test system: EKVX NSCLC
[11] = test system: MDA-MB-231 breast
[12] = test system: SK-MEL-28 melanoma
[13] = test system: MCF7 breast
[14] = test system: NCI/ADR-RES ovarian
[15] = test system: NCI-H460 lung
[16] = test system: OVCAR-5 ovarian
[17] = test system: DU-145 prostate
[18] = test system: LOX IMVI melanoma
[19] = test system: UACC-257 melanoma
[20] = test system: HS 578T breast
[21] = test system: HL-60(TB) leukemia
[22] = test system: 786-0 renal
[23] = test system: HCT-15 colon
[24] = test system: PC-3 prostate
[25] = test system: COLO 205 colon
[26] = test system: K-562 leukemia
[27] = test system: SNB-19 CNS
[28] = test system: HOP-92 NSCLC
[29] = test system: CCRF-CEM leukemia
[30] = test system: IGROV1 ovarian
[31] = test system: HCC-2998 colon
[32] = test system: A549 NSCLC
[33] = test system: NCI-H522 lung
[34] = test system: HCT-116 colon
[35] = test system: HOP-62 NSCLC
[36] = test system: M14 melanoma
[37] = test system: SF-268 CNS
[38] = test system: BT-549 breast
[39] = test system: SN12C renal
[40] = test system: HT29 colon
[41] = test system: U251 CNS
[42] = test system: OVCAR-8 ovarian
[43] = test system: NCI-H23 lung
[44] = test system: UACC-62 melanoma
[45] = test system: SR leukemia
[46] = test system: RXF 393 renal
[47] = test system: SK-MEL-2 melanoma
[48] = test system: MALME-3M melanoma
[49] = test system: SF-539 CNS
[50] = test system: ACHN renal
[51] = test system: TK-10 renal
[52] = test system: SK-OV-3 ovarian
[53] = test system: RPMI-8226 leukemia
[54] = test system: SF-295 CNS
[55] = test system: NCI-H226 lung
[56] = test system: KM12 colon
[57] = test system: SNB-75 CNS
[58] = test system: SK-MEL-5 melanoma

## CSc1nc(Cl)c2c(n1)Sc1ncnn1C2O (stereo unspecified)
[1]
  TGI: 38.1 µM
[2]
  TGI: 20.1 µM
[3]
  TGI: 29.6 µM
[4]
  TGI: 15.9 µM
[5]
  TGI: 20.5 µM
[6]
  TGI: 25.4 µM
[7]
  TGI: 36.3 µM
[8]
  TGI: 5.24 µM
[9]
  TGI: 27.1 µM
[10]
  TGI: 36.3 µM
[11]
  TGI: 31.6 µM
[12]
  TGI: > 100 µM
[13]
  TGI: 16 µM
[14]
  TGI: 54.6 µM
[15]
  TGI: 46.4 µM
[16]
  TGI: 32.3 µM
[17]
  TGI: 19.2 µM
[18]
  TGI: 21.1 µM
[19]
  TGI: 45.7 µM
[20]
  TGI: 23.2 µM
[21]
  TGI: 14.8 µM
[22]
  TGI: 9.08 µM
[23]
  TGI: 18.4 µM
[24]
  TGI: 27.7 µM
[25]
  TGI: 62.7 µM
[26]
  TGI: 30.6 µM
[27]
  TGI: 45.2 µM
[28]
  TGI: 30.3 µM
[29]
  TGI: 10.9 µM
[30]
  TGI: 34.2 µM
[31]
  TGI: 27.4 µM
[32]
  TGI: 36.9 µM
[33]
  TGI: 4.23 µM
[34]
  TGI: 17.1 µM
[35]
  TGI: 41.1 µM
[36]
  TGI: 29 µM
[37]
  TGI: 26.7 µM
[38]
  TGI: 28.8 µM
[39]
  TGI: 24 µM
[40]
  TGI: 28.4 µM
[41]
  TGI: 33.9 µM
[42]
  TGI: 15.7 µM
[43]
  TGI: 30.9 µM
[44]
  TGI: 26.3 µM
[45]
  TGI: > 100 µM
[46]
  TGI: 5.63 µM
[47]
  TGI: 41.8 µM
[48]
  TGI: 8.22 µM
[49]
  TGI: 15.5 µM
[50]
  TGI: 15.4 µM
[51]
  TGI: 31.2 µM
[52]
  TGI: 42.2 µM

## C=CCn1c(=O)c(-c2ccccc2)c(O)c2ccccc21
[1]
  TGI: > 100 µM
[2]
  TGI: > 100 µM
[3]
  TGI: > 100 µM
[4]
  TGI: > 100 µM
[5]
  TGI: > 100 µM
[6]
  TGI: > 100 µM
[7]
  TGI: > 100 µM
[8]
  TGI: > 100 µM
[9]
  TGI: > 100 µM
[10]
  TGI: > 100 µM
[11]
  TGI: > 100 µM
[12]
  TGI: > 100 µM
[13]
  TGI: > 100 µM
[14]
  TGI: > 100 µM
[15]
  TGI: > 100 µM
[16]
  TGI: > 100 µM
[17]
  TGI: > 100 µM
[18]
  TGI: > 100 µM
[19]
  TGI: > 100 µM
[20]
  TGI: > 100 µM
[21]
  TGI: > 100 µM
[22]
  TGI: > 100 µM
[23]
  TGI: > 100 µM
[24]
  TGI: > 100 µM
[25]
  TGI: > 100 µM
[26]
  TGI: > 100 µM
[27]
  TGI: > 100 µM
[28]
  TGI: > 100 µM
[29]
  TGI: > 100 µM
[30]
  TGI: > 100 µM
[31]
  TGI: > 100 µM
[32]
  TGI: > 100 µM
[33]
  TGI: > 100 µM
[34]
  TGI: > 100 µM
[53]
  TGI: > 100 µM
[35]
  TGI: > 100 µM
[37]
  TGI: > 100 µM
[38]
  TGI: > 100 µM
[39]
  TGI: > 100 µM
[54]
  TGI: > 100 µM
[40]
  TGI: > 100 µM
[55]
  TGI: > 100 µM
[41]
  TGI: > 100 µM
[56]
  TGI: > 100 µM
[57]
  TGI: > 100 µM
[42]
  TGI: > 100 µM
[43]
  TGI: > 100 µM
[45]
  TGI: > 100 µM
[46]
  TGI: > 100 µM
[48]
  TGI: > 100 µM
[49]
  TGI: > 100 µM
[50]
  TGI: > 100 µM
[51]
  TGI: > 100 µM
[58]
  TGI: > 100 µM
